In patent US20250171511A1, “ANTIVIRAL PEPTIDES AND METHODS OF USE THEREOF” (Versitech Limited, priority 2021, published 2025):
Where two headings read alike, the source gives them in different places. Where no end group is shown, it is not given here. 4MPA = not defined here

How the values were obtained:
SARS-CoV-2 [1] = experiment: Plaque reduction assay against SARS-CoV-2; type: cell-based
Description: Briefly, peptides were dissolved in PBS or 30mM phosphate buffer (PBS/5) containing 24.6 mM Na2HPO4 and 5.6 mM KH2PO4 at a pH of 7.4. Peptides or bovine serum albumin (BSA, 0.2-25.0 μg ml^−1) were premixed with SARS-CoV-2 at room temperature. After 45-60 min of incubation, peptide-virus mixture was transferred to Vero-E6 cells, correspondingly. At 1 h post infection, infectious media were removed, and 1% low melting agar was added to cells. Cells were fixed using 4% formalin at 2-3 day post infection. […] (0.1%) was added for staining, and the number of plaques was counted.

VeroE6 cells [2] = experiment: MTT cytotoxicity assay in VeroE6 cells; type: cell-based
Description: (§1) Cytotoxicity of peptides was determined by the detection of 50% cytotoxic concentration (CC50) using a tetrazolium-based colorimetric MTT assay (H. Zhao, et al., Sci Rep, 6 (2016) 22008). Briefly, cells were seeded in 96-well cell culture plate at an initial density of 4×10^4 cells per well in DMEM supplemented with 10% FBS and incubated for overnight. Cell culture media were removed and then DMEM supplemented with various concentrations of peptides and 1% FBS were added to each well. After 24 h incubation at 37° C., MTT solution (5 mg ml^−1, 10 μl per well) was added to each well for incubation at 37° C. for 4 h. Then, 100 μl of 10% SDS in 0.01M HCl was added to each well. After further incubation at room temperature with shaking overnight, the plates were read at OD570 using VictorTM X3 Multilabel Reader (PerkinElmer, USA). Cell culture wells without peptides were used as the experiment control and medium only served as a blank control.

Calu-3 cells = experiment: MTT cytotoxicity assay in Calu-3 cells; type: cell-based
Description: as §1

SARS-CoV-2 [3] = experiment: Viral attachment/entry and replication in VeroE6 cells by RT-qPCR; type: cell-based
SARS-CoV-2 [4] = experiment: Transmission electron microscopy assay; settings: virus pretreated
Description: To determine the effect of 4H30 on viral particles, SARS-CoV-2 was pretreated by 100 μg ml^−1 of 4H30 or H30 for 1 h. The virus was fixed by formalin for overnight. For spike treated by 4H30 or H30, spike (100 μg ml^−1 mixed with 50 μg ml^−1 of 4H30 or H30. Viral or protein samples were applied to continuous carbon grids. The grids were transferred into 4% uranyl acetate and incubated for 1 min. After removing the solution, the grids were air-dried at room temperature. For each peptide/DNA nanoparticle, three independent experiments were done for taking TEM images by FEI Tecnal G2-20 TEM or Philips CM100-TEM.

SARS-CoV-2 [5] = type: cell-based
SARS-CoV-2 [6] = experiment: Antiviral activity of GAG-treated 4H30 (viral RNA copy); type: cell-based
VeroE6 cells [7] = experiment: Endosomal acidification assay; type: cell-based
Description: Endosomal acidification was detected with a pH-sensitive dye (pHrodo green dextran, Invitrogen, Cat^# P35365) according to the manufacturer's instructions as previously described but with slight modification (H. Zhao, et al., Nat Commun, 9 (2018) 2358). First, VeroE6 cells were treated with DMEM, 4H30 (25.0 μg ml^−1), or bafilomycin A1 (50.0 nM) at 4° C. for 15 min. Second, VeroE6 cells were added with 100 μg ml^−1 of pH-sensitive dye and DAPI and then incubated at 4° C. for 15 min. Before taking images, cells were further incubated at 37° C. for 15 min and then cells were washed twice with PBS. Finally, PBS was added to cells and images were taken immediately with confocal microscope (Carl Zeiss LSM 800, Germany).

[8] = system: SARS-CoV-2 (B.1. 617.2, Delta); experiment: Post-exposure antiviral activity in hamsters, Delta; type: in vivo, hamster; settings: 0.5 mg kg^−1, post exposure
H1N1 virus = experiment: H1N1 plaque reduction assay; type: cell-based; settings: virus treated in PBS 30 min, VeroE6
HRV-1B = HRV-1B infection, supernatant viral RNA by RT-qPCR; type: cell-based; settings: RD or H1-Hela cells, 30 hpi
Description: (§2) Viruses were treated by 4H30 for infection in RD or H1-Hela cells. Viruses, HRV-1B and HRV-B14 were treated by 4H30 in PBS for 30 min and then the treated viruses were added to RD or H1-Hela cells for infection. After 1 h infection, the un-infected viruses were removed and fresh media with the indicated concentration of 4H30 was added to cells for viral culture. The supernatant viruses were measured at 30 hpi by RT-qPCR. Viral RNA copy (%) was the viral RNA of 4H30-treated virus normalized to that of untreated virus (0). […] The primers for detecting the viral RNA copies: HRV-F1: 5′-[…] -3′; HRV-F2: 5′-[…] -3′, HRV-R: 5′-[…] -3′; HRV-Probe: 5′ HEX-[…] -1ABKFQ 3′ (Y=C or T, K=G or T). The supernatant viruses were measured at 30 hpi.

HRV-B14 = HRV-B14 infection, supernatant viral RNA by RT-qPCR; type: cell-based; settings: RD or H1-Hela cells, 30 hpi
Description: as §2

spike = spike (Severe acute respiratory syndrome coronavirus 2, UniProt P0DTC2); settings: ELISA
Description: (§3) For determining spike and ACE2 binding, 60 ng S or ACE2 in PBST was incubated with peptides at 37° C. for 30 min.

spike and ACE2 = spike and ACE2 (Severe acute respiratory syndrome coronavirus 2, UniProt P0DTC2); settings: ELISA
Description: as §3

[9] = intranasal
SARS-CoV-2 (B.1.1.63) = experiment: Post-infection treatment, viral titers in supernatants; settings: 4H30 added at 6 hpi

In the case of “GAICHPVFCPRRYKQIGTCGLPGTKCCKKP-4MPA (cysteine pairing not given here; reading uncertain; also: printed as GAICHPVFCPRRYKQIGTCGLPGTKCCKKP-4MPA) [Peptide 4H30]”, the IC50 (SARS-CoV-2 [1]; virus premixed with peptide in PBS, plaque reduction) is reported as 0.59 µg/mL, the “SARS-CoV-2 infection after dilution of treated virus” value (SARS-CoV-2 [1]; virus pretreated by 50 μg ml^−1, then 10,000-fold diluted (0.005 μg ml^−1)) is reported as “significantly inhibited SARS-CoV-2 infection” and the TC50 (VeroE6 cells [2]) is reported as “higher than 400 μg ml^−1”. The TC50 (Calu-3 cells) was “higher than 400 μg ml^−1”, the “viral load increase at 6 hpi compared with 1 hpi” value (SARS-CoV-2 [3]) was 13 fold and the “viral attachment and/or entry” value (SARS-CoV-2 [3]; cells pretreated by 4H30) was “significantly increased”. The “viral attachment and/or entry” value (SARS-CoV-2 [3]; virus pretreated by 4H30) was “significantly increased”, the “SARS-CoV-2 attachment to cells” value (SARS-CoV-2 [3]; at 4 degrees) was “increase SARS-CoV-2 attachment” and the “viral load at 6 hpi compared with 1 hpi” value (SARS-CoV-2 [3]; cell lysate, virus pretreated by 4H30) was “no significant increase in viral load”. The “integrity of viral particles under TEM” value (SARS-CoV-2 [4]) was “did not disrupt viral particles”, the “viral clusters under TEM” value (SARS-CoV-2 [4]) was “cross-linked SARS-CoV-2 to form bigger viral clusters” and the “attachment of SARS-CoV-2 to cells” value (SARS-CoV-2 [5]; 4H30 pretreated by GAGs) was “significantly reduced”. The “attachment of SARS-CoV-2 to cells” value (SARS-CoV-2 [5]; A549 (ACE2^−) cells treated by 4H30) was “significantly increased”, the “attachment of SARS-CoV-2 to cells” value (SARS-CoV-2 [5]; Calu-3 (ACE2^+) cells treated by 4H30) was “significantly increased” and the “attachment of SARS-CoV-2 to cells” value (SARS-CoV-2 [5]; cells pretreated by Chondroitinase ABC and Heparinase) was “significantly reduced”. The “antiviral activity of GAG-treated 4H30” value (SARS-CoV-2 [6]; 4H30 treated by 1250 ng/ml of CS or HS) was “significantly reduced”, the “antiviral activity of GAG-treated 4H30” value (SARS-CoV-2 [6]; CS or HS in physiological concentration (50˜100 ng/ml)) was “still significantly inhibit viral replication” and the endosomal acidification (VeroE6 cells [7]) was “inhibition of endosomal acidification”. For the same substance, the “SARS-CoV-2 replication in hamsters” value [8] was “significantly inhibited”, the “syncytium formation and bronchial epithelial pathology in lungs” value [8] was “reduced the syncytium formation and bronchial epithelial pathology” and the H1N1 virus replication (H1N1 virus) was “significantly inhibited”. The “inhibition of HRV-1B, viral RNA copy” value (HRV-1B) was “effectively inhibited”, the “inhibition of HRV-B14, viral RNA copy” value (HRV-B14) was “effectively inhibited” and the binding to spike (spike) was “more effectively bound to spike when compared with ACE2”. The “binding between spike and ACE2” value (spike and ACE2) was “did not significantly affect”, the “pathological and body weight changes” value ([9]; 4 dpi) was “did not cause pathological and body weight changes” and the “histopathological and body weight changes” value ([9]; 40 dpi, compared with mock) was “no significant histopathological and body weight changes”. For the same substance, the SARS-CoV-2 replication (SARS-CoV-2 (B.1.1.63); Calu-3 cells) was “significantly inhibited” and the SARS-CoV-2 replication (SARS-CoV-2 (B.1.1.63); VeroE6 cells) was “significantly inhibited”.
